These results are taken from US12180222B2, “Crystal forms of thiophene derivatives” (Tianjin Hemay Pharmaceutical Co., Ltd, priority 2018, dated 2024).

Structures are written as SMILES.

What all share (type): physicochemical
The nature of data set [1]: Accelerated stability (40° C. and Rh=75%, liquid chromatogram and DSC). As to the method: Crystal form III of (S)—N-[5-[1-(3-ethoxy-4-methoxyphenyl)-2-(methylsulfonyl)ethyl]-4,6-dioxo-5,6-dihydro-4H-thieno[3,4-c]pyrrole-1-yl]acetamide prepared according to the process of Example 1 was placed in a stability text box at 40° C. and Rh=75%. After 1 month, liquid chromatogram and DSC were tested.

The nature of data set [2]: Aqueous solution balance stability (crystal form by XRPD after equilibrium in water). The following applies: 37° C., 24 hours. As to the method:
About 0.5 g of crystal form III of (S)—N-[5-[1-(3-ethoxy-4-methoxyphenyl)-2-(methylsulfonyl)ethyl]-4,6-dioxo-5,6-dihydro-4H-thieno[3,4-c]pyrrole-1-yl]acetamide was added to 40 mL of water. The mixture was stirred at 37° C. for 24 hours. The suspension was filtered. After wet solid was dried, crystal form of powders was tested with X-ray powder diffraction (XRPD).

A short description of data set [3]: High temperature stability (sealed oven at 40° C., liquid chromatogram and DSC). On the procedure: Crystal form III of (S)—N-[5-[1-(3-ethoxy-4-methoxyphenyl)-2-(methylsulfonyl)ethyl]-4,6-dioxo-5,6-dihydro-4H-thieno[3,4-c]pyrrole-1-yl]acetamide prepared according to the process of Example 1 was placed in a sealed oven at 40° C. After 1 month, liquid chromatogram and DSC were tested.

Data set [4] is described as follows: Dissolution rate of crystal form in water. The note with it: about 25 mg in 900 mL water, 37° C., rotating speed 100/minute. On the procedure:
The crystal form III of (S)—N-[5-[l-(3-ethoxy-4-methoxyphenyl)-2-(methylsulfonyl)ethyl]-4,6-dioxo-5,6-dihydro-4H-thieno[3,4-c]pyrrole-1-yl]acetamide prepared according to the process in Example 1 was tested.
About 25 mg of crystal form III of (S)—N-[5-[1-(3-ethoxy-4-methoxyphenyl)-2-(methylsulfonyl)ethyl]-4,6-dioxo-5,6-dihydro-4H-thieno[3,4-c]pyrrole-1-yl]acetamide was added to 900 mL of water. The mixture was stirred at a rotating speed of 100/minute at 37° C. for 90 minutes. The supernatant was filtered and diluted. The concentration of the diluted solution (a mg/mL) was determined by ultraviolet spectrophotometer. The dissolution rate was calculated according to the formula 900a/25×100%.

Data set [5] is described as follows: Moisture absorption stability / hygroscopicity (RH=80%). The following applies: RH=80% (saturated ammonium chloride solution) until weight balanced. As to the method:
Moisture absorption of crystal form III of (S)—N-[5-[1-(3-ethoxy-4-methoxyphenyl)-2-(methylsulfonyl)ethyl]-4,6-dioxo-5,6-dihydro-4H-thieno[3,4-c]pyrrole-1-yl]acetamide was studied. Crystal form III of (S)—N-[5-[1-(3-ethoxy-4-methoxyphenyl)-2-(methylsulfonyl)ethyl]-4,6-dioxo-5,6-dihydro-4H-thieno[3,4-c]pyrrole-1-yl]acetamide was placed in a drier containing saturated ammonium chloride solution (RH=80%) until weight was balanced. The crystal form was tested with XRPD.
Crystal form III of (S)—N-[5-[1-(3-ethoxy-4-methoxyphenyl)-2-(methylsulfonyl)ethyl]-4,6-dioxo-5,6-dihydro-4H-thieno[3,4-c]pyrrole-1-yl]acetamide prepared according to the process of Example 1 was tested.

As to `CCOc1cc([C@@H](CS(C)(=O)=O)N2C(=O)c3csc(NC(C)=O)c3C2=O)ccc1OC` [Crystal Form III, (S)—N-[5-[1-(3-ethoxy-4-methoxyphenyl)-2-(methylsulfonyl)ethyl]-4,6-dioxo-5,6-dihydro-4H-thieno[3,4-c]pyrrole-1-yl]acetamide], in data set [1] (40° C. and Rh=75%, 1 month), the “stability under high-temperature and high-humidity conditions” value is “good stability”. The “Relevant Substance Contents at Day 0 (%)” value in data set [1] (Day 0, before storage at 40° C. RH = 75%) came out at 0.07%; in data set [3] (Day 0, before storage at 40° C.), 0.07%. Further, the “Relevant Substance Contents after 1 Month (%)” value is on record as 0.09% in data set [1] (storage 40° C. RH = 75%, 1 month) and 0.09% in data set [3] (storage 40° C., sealed oven, 1 month). Besides, the stability in water entry in data set [2] is recorded as “good stability”. For the same molecule, the “stability under high temperature conditions” value in data set [3] (40° C., 1 month) is “good stability”. Further, the “Dissolution Rate (%)” value in data set [4] (time 0 min) is 0%; in data set [4] (time 15 min) it was 32.2%; in data set [4] (time 30 min), 46.3%; in data set [4] (time 45 min) it was 55.1%; in data set [4] (time 60 min), 61.8%; in data set [4] (time 75 min), 66.5%. For the same molecule, the “Dissolution Rate (%)” value in data set [4] (time 90 min) is recorded as 71.5%. The “Moisture Absorption %)” value in data set [5] is 1.17%. Besides, the “Weight Increase” value in data set [5] (mAPI 0.511 g) is reported as 0.006 g.
